ChEMBL document CHEMBL1131720, “Phosphofurylalanine, a stable analog of phosphohistidine” (Bioorg Med Chem Lett, 1999)

Experiments:
[1] = Kinetic resolution using alpha-chymotrypsin, 375 U.mL e-1 at 72 hr expressed as percent ee unreacted; assay type: ADME
Equus caballus = organism: Equus caballus; assay: Kinetic resolution using horse liver esterase, 3 U.mL e-1 at 48 hr expressed as percent ee unreacted; assay type: ADME, organism-based; details: in vivo
[2] = Kinetic resolution using papain, 170 U.mL e-1 at 24 hr expressed as percent ee unreacted; assay type: ADME
Sus scrofa = organism: Sus scrofa; assay: Kinetic resolution using pig liver esterase, 240 U.mL e-1 at 48 hr expressed as percent ee unreacted; assay type: ADME, organism-based; details: in vivo

Row | Compound | Unreacted drug [1] | Unreacted drug (Equus caballus) | Unreacted drug [2] | Unreacted drug (Sus scrofa)
1 | CCOC(=O)[C@@H](Cc1cc(P(=O)(OCC)OCC)co1)NC(=O)OC(C)(C)C | 0% | 60% | > 96% | 70%
2 | CCOP(=O)(OCC)c1coc(C[C@H](NC(=O)OC(C)(C)C)C(=O)O)c1 |  | 50% | 75% | 60%
